Results reported in paper PMC8753592, “Long-acting capsid inhibitor protects macaques from repeat SHIV challenges” (Nature, 2021).
Several values for one entry are separate records, joined by “and”; a condition that tells them apart may be missing. Equal entries are not always repeated.

How the values were obtained:
[1] = system: HIV capsid; conditions: ref Yant et al, Nat.Med, 2019;[4]; cited from earlier work
[2] = ref Yant et al, Nat.Med, 2019;[4], cited from earlier work
[3] = biological target: CA precursor (Gag polyprotein); conditions: ref Yant et al, Nat.Med, 2019;[4]; read-out: Binding Affinity (KD), CA precursor (Gag polyprotein); cited from earlier work
[4] = in vitro; conditions: rhesus
Procedure: After a 24-h equilibration period at 37 °C, samples were quenched with 4 volumes of 90% (vol/vol) acetonitrile and 10% (vol/vol) methanol containing internal standard. Then, they were quantified using the AB Sciex API 4000 LC–MS/MS system (GenTech Scientific) with electrospray ionization in positive mode and multiple-reaction monitoring and were analysed using Analyst 1.6.1 software. The fold change value in 100% rhesus plasma was then calculated using the plasma/CCM ratio after correcting for the sample dilution factor and the percentage of free fraction in the matrix.

[5] = biological target: CA hexamer; conditions: ref Yant et al, Nat.Med, 2019;[4]; read-out: Binding Affinity (KD), CA hexamer; cited from earlier work
[6] = system: SHIV envelope (Env) glycoprotein; assay: Env (gp140) ELISA seroconversion in challenged animals; assay type: in vivo, rhesus macaques; conditions: for First viremia to seroconversion interval / Seroconversion timepoint: individual infected animals
Procedure: Rhesus serum binding antibody titres against gp140 trimers were determined by ELISA. Ninety-six-well Maxisorp ELISA plates (Thermo Fisher Scientific) were coated overnight with 100 μl per well of 1 μg ml^−1 mosaic M gp140 protein in PBS and were then blocked for 2 h with blocker casein in PBS (Thermo Scientific). Macaque sera were added in threefold serial dilutions and were incubated for 1 h at room temperature. The plates were washed three times with PBS containing 0.05% Tween-20 and were then incubated for 1 h with a 1:1,000 dilution of a horseradish peroxidase (HRP)-conjugated goat anti-human secondary antibody (Jackson ImmunoResearch Laboratories). The plates were then washed three times with the above wash buffer and were developed using SureBlue tetramethylbenzidine (TMB) microwell peroxidase (KPL). Development was stopped by the addition of a stop solution (KPL), and the plates were then analysed at 450 nm with a Versamax ELISA microplate reader (Molecular Devices) using Softmax Pro 6.5.1 software. The ELISA endpoint titres were defined as the highest reciprocal serum dilution that yielded an OD450 nm absorbance of >0.2. Seroconversion occurred when the OD450 nm absorbance was greater than or equal to three times the value obtained at week 0 and the endpoint titre was greater than the assay LOD, which was 1:25.

[7] = ref Yant et al, Nat.Med, 2019;[4]; cited from earlier work

CC(C)(C#Cc1ccc(-c2ccc(Cl)c3c(NS(=O)(=O)C4CC4)nn(CC(F)F)c23)c([C@H](Cc2cc(F)cc(F)c2)NC(=O)Cn2nc(C(F)F)c3c2C(F)(F)[C@@H]2C[C@H]32)n1)S(C)(=O)=O [GS-CA1]
Inhibits nuclear import (early-stage) [1]: Yes
Inhibits proper capsid assembly (late-stage) [1]: Yes
Inhibits virus production (late-stage) [1]: Yes
Kinetic solubility at pH 2.0 ([2]; pH 2.0): <1, <1 μM
Kinetic solubility at pH 7.4 ([2]; pH 7.4): <1, <1 μM
Kd [3]: 2.4 nM
recovery at 24 h, 2 μM [4]: 60%
Kd [5]: 0.38 nM
First viremia to seroconversion interval ([6]; 150 mg/kg): 1 weeks and 4 weeks and 5 weeks
Seroconversion timepoint ([6]; 150 mg/kg): 17 study week and 20 study week and 18 study week and 16 study week and 19 study week and 21 study week
First viremia to seroconversion interval ([6]; 300 mg/kg): 1 weeks and 3 weeks
Seroconversion timepoint ([6]; 300 mg/kg): 18 study week and 20 study week
median time to seroconversion from the onset of viraemia ([6]; all infected GS-CA1-treated animals, range 1 to 5 weeks): 4 weeks
Predicted Hepatic Clearance, rate, primary human hepatocytes [7]: 0.33 mL/min/kg
